Assay results as given in patent publication US5079257A, “Indoloquinone compounds” (priority 1986, dated 1992).
Like-named read-outs stand apart in the source and are kept apart here.

What was measured:
Lung-NSCLC (LXFG) line = experiment: Human tumour xenograft in nude mice: lung; format: in vivo; conditions: i.v. days 14 and 21, 4 and 6 mg/kg
Description: (§1) Based on the results obtained during the in vitro experiments indoloquinone E.O. 9 was selected for an extended in vivo study. The activity of this compound has been determined in four human tumour xenografts transplanted in nude mice.
(§2) The xenograft experiments have been carried by Dr. H. H. Fiebig of the University of Freiburg [Lung-NSCLC (LXGF) line, Renal line, Breast line; See: H. H. Fiebig et al., Behring Inst. Mitt., 74 343] and by Dr. E. Boven of the Free University Hospital Amsterdam [Ovarian (MRI-H-207) line; See: E. Boven et al., Cancer Res., 45, 86 (1985) and E. Boven et al., Eur. J. Clin. Oncol., 21, 1253 (1985)].
The tumour was transplanted s.c. and E.O. 9 was administrated i.v. on days 14 and 21 after transplantation at a dose of 4 and 6 mg/kg.

Breast line = experiment: Human tumour xenograft in nude mice: breast; format: in vivo; conditions: i.v. days 46 and 53, 4 and 6 mg/kg
Description: as §1, §2
The tumour was transplanted s.c. and E.O. 9 was administrated i.v. on days 46 and 53 after transplantation at a dose of 4 and 6 mg/kg.

Ovarian (MRI-H-207) line = format: in vivo, human; conditions: for T/C % / toxic deaths: days of treatment 0.7
Method in brief: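 Female athymic nu/nu mice, 8-10 weeks old, carrying bilateral s.c. MRI-H-207 ovarian adenocarcinoma fragments; compound dosed i.v. in saline once tumours reached 50-150 mm^3. Tumours measured in three dimensions twice weekly; efficacy given as optimal % T/C of relative tumour volume within 35 days after last injection, excluding toxic deaths.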

`Cn1c(/C=C/CO)c(CO)c2c1C(=O)C=C(N1CC1)C2=O` [E.O. 9, 5-Aziridino-3-hydroxymethyl-1-methyl-2-[1H-indole-4,7-dione]prop-β-en-α-ol] gave an optimal growth inhibition (Lung-NSCLC (LXFG) line) of 42%, a specific growth delay (Lung-NSCLC (LXFG) line) of 1.03 and an optimal growth inhibition (Breast line) of 51%. The T/C % (Ovarian (MRI-H-207) line; 5 mg/kg) was 3.8%, the toxic deaths (Ovarian (MRI-H-207) line; 5 mg/kg) was 0/7 and the T/C % (Ovarian (MRI-H-207) line; 6 mg/kg) was 2.4%. The toxic deaths (Ovarian (MRI-H-207) line; 6 mg/kg) was 1/7 and the optimal growth inhibition (Ovarian (MRI-H-207) line; 5 and 6 mg/kg q8d×2) was 98%.
